The source made the active and inactive calls. No cut-off for these calls is given here.
Tests used:
Fusarium verticillioides [1] = test: Antifungal activity against Fusarium verticillioides assessed as inhibition of conidium germination at 5 g/l incubated for 15 min followed by compound washout measured after 7 days by microscopic analysis in presence of surfactant APSA 80; type: functional, organism-based
Lasiodiplodia theobromae [2] = test: Antifungal activity against Lasiodiplodia theobromae assessed as reduction in colony diameter at 10 to 160 g/l incubated for 15 min followed by compound washout measured after 7 days in presence of surfactant APSA 80 relative to control; type: functional; set-up: scale not given: the % may be the effect or the level left
Thielaviopsis paradoxa [3] = test: Antifungal activity against Ceratocystis paradoxa infected Cavendish banana fruit assessed as reduction in crown rot incubated for 15 min followed by compound washout measured after 1 week in absence of surfactant APSA 80 relative to control; type: functional; set-up: concentration or dose not given beside the values
Lasiodiplodia theobromae [4] = test: Antifungal activity against Lasiodiplodia theobromae infected Cavendish banana fruit assessed as reduction in crown rot incubated for 15 min followed by compound washout measured after 1 week in presence of surfactant APSA 80 relative to control; type: functional; set-up: concentration or dose not given beside the values
Thielaviopsis paradoxa [5] = test: Antifungal activity against Ceratocystis paradoxa infected Cavendish banana fruit assessed as reduction in crown rot incubated for 15 min followed by compound washout measured after 2 weeks in presence of surfactant APSA 80 relative to control; type: functional; set-up: concentration or dose not given beside the values
Colletotrichum musae [6] = test: Antifungal activity against Colletotrichum musae infected Cavendish banana fruit assessed as reduction in crown rot incubated for 15 min followed by compound washout measured after 2 weeks in absence of surfactant APSA 80 relative to control; type: functional; set-up: concentration or dose not given beside the values
Colletotrichum musae [7] = test: Antifungal activity against Colletotrichum musae infected Cavendish banana fruit assessed as reduction in crown rot incubated for 15 min followed by compound washout measured after 1 week in presence of surfactant APSA 80 relative to control; type: functional; set-up: concentration or dose not given beside the values
Colletotrichum musae [8] = test: Antifungal activity against Colletotrichum musae infected Cavendish banana fruit assessed as reduction in crown rot incubated for 15 min followed by compound washout measured after 1 week in absence of surfactant APSA 80 relative to control; type: functional; set-up: concentration or dose not given beside the values
Thielaviopsis paradoxa [9] = test: Antifungal activity against Ceratocystis paradoxa infected Cavendish banana fruit assessed as reduction in crown rot incubated for 15 min followed by compound washout measured after 2 weeks in absence of surfactant APSA 80 relative to control; type: functional; set-up: concentration or dose not given beside the values
Fusarium verticillioides [10] = test: Antifungal activity against Fusarium verticillioides infected Cavendish banana fruit assessed as reduction in crown rot incubated for 15 min followed by compound washout measured after 3 weeks in presence of surfactant APSA 80 relative to control; type: functional; set-up: concentration or dose not given beside the values; settings: pooled result: one value given for 4 cell lines, strains, targets or settings
Colletotrichum musae [11] = test: Growth inhibition of Colletotrichum musae assessed as inhibition of mycelial growth up to 160 g/l incubated for 15 min followed by compound washout measured after 7 days in absence of surfactant APSA 80; type: functional
Fusarium verticillioides [12] = test: Antifungal activity against Fusarium verticillioides assessed as reduction in colony diameter at 10 to 160 g/l incubated for 15 min followed by compound washout measured after 7 days in presence of surfactant APSA 80 relative to control; type: functional; set-up: scale not given: the % may be the effect or the level left
Fusarium verticillioides [13] = test: Antifungal activity against Fusarium verticillioides infected Cavendish banana fruit assessed as reduction in crown rot incubated for 15 min followed by compound washout measured after 2 weeks in presence of surfactant APSA 80 relative to control; type: functional; set-up: concentration or dose not given beside the values
Lasiodiplodia theobromae [14] = test: Antifungal activity against Lasiodiplodia theobromae assessed as reduction in colony diameter at 10 to 160 g/l incubated for 15 min followed by compound washout measured after 7 days in absence of surfactant APSA 80 relative to control; type: functional; set-up: scale not given: the % may be the effect or the level left
Thielaviopsis paradoxa [15] = test: Growth inhibition of Ceratocystis paradoxa assessed as inhibition of mycelial growth up to 160 g/l incubated for 15 min followed by compound washout measured after 7 days in presence of surfactant APSA 80; type: functional
Lasiodiplodia theobromae [16] = test: Antifungal activity against Lasiodiplodia theobromae infected Cavendish banana fruit assessed as reduction in crown rot incubated for 15 min followed by compound washout measured after 2 weeks in presence of surfactant APSA 80 relative to control; type: functional; set-up: concentration or dose not given beside the values
Colletotrichum musae [17] = test: Antifungal activity against Colletotrichum musae infected Cavendish banana fruit assessed as reduction in crown rot incubated for 15 min followed by compound washout measured after 2 weeks in presence of surfactant APSA 80 relative to control; type: functional; set-up: concentration or dose not given beside the values
Colletotrichum musae [18] = test: Antifungal activity against Colletotrichum musae assessed as reduction in colony diameter at 10 to 160 g/l incubated for 15 min followed by compound washout measured after 7 days in absence of surfactant APSA 80 relative to control; type: functional; set-up: scale not given: the % may be the effect or the level left
Fusarium verticillioides [19] = test: Growth inhibition of Fusarium verticillioides assessed as inhibition of mycelial growth up to 160 g/l incubated for 15 min followed by compound washout measured after 7 days in absence of surfactant APSA 80; type: functional
Thielaviopsis paradoxa [20] = test: Antifungal activity against Ceratocystis paradoxa infected Cavendish banana fruit assessed as reduction in crown rot incubated for 15 min followed by compound washout measured after 1 week in presence of surfactant APSA 80 relative to control; type: functional; set-up: concentration or dose not given beside the values
Fusarium verticillioides [21] = test: Antifungal activity against Fusarium verticillioides infected Cavendish banana fruit assessed as reduction in crown rot incubated for 15 min followed by compound washout measured after 1 week in presence of surfactant APSA 80 relative to control; type: functional; set-up: concentration or dose not given beside the values
Fusarium verticillioides [22] = test: Antifungal activity against Fusarium verticillioides assessed as reduction in colony diameter at 10 to 160 g/l incubated for 15 min followed by compound washout measured after 7 days in absence of surfactant APSA 80 relative to control; type: functional; set-up: scale not given: the % may be the effect or the level left
Lasiodiplodia theobromae [23] = test: Antifungal activity against Lasiodiplodia theobromae infected Cavendish banana fruit assessed as reduction in crown rot incubated for 15 min followed by compound washout measured after 2 weeks in absence of surfactant APSA 80 relative to control; type: functional; set-up: concentration or dose not given beside the values
Fusarium verticillioides [24] = test: Antifungal activity against Fusarium verticillioides infected Cavendish banana fruit assessed as reduction in crown rot incubated for 15 min followed by compound washout measured after 3 weeks in absence of surfactant APSA 80 relative to control; type: functional; set-up: concentration or dose not given beside the values; settings: pooled result: one value given for 4 cell lines, strains, targets or settings
Fusarium verticillioides [25] = test: Growth inhibition of Fusarium verticillioides assessed as inhibition of mycelial growth up to 160 g/l incubated for 15 min followed by compound washout measured after 7 days in presence of surfactant APSA 80; type: functional, organism-based
Fusarium verticillioides [26] = test: Antifungal activity against Fusarium verticillioides infected Cavendish banana fruit assessed as reduction in crown rot incubated for 15 min followed by compound washout measured after 2 weeks in absence of surfactant APSA 80 relative to control; type: functional; set-up: concentration or dose not given beside the values
Thielaviopsis paradoxa [27] = test: Antifungal activity against Ceratocystis paradoxa assessed as reduction in colony diameter at 10 to 160 g/l incubated for 15 min followed by compound washout measured after 7 days in absence of surfactant APSA 80 relative to control; type: functional; set-up: scale not given: the % may be the effect or the level left
Colletotrichum musae [28] = test: Antifungal activity against Colletotrichum musae assessed as reduction in colony diameter at 10 to 160 g/l incubated for 15 min followed by compound washout measured after 7 days in presence of surfactant APSA 80 relative to control; type: functional; set-up: scale not given: the % may be the effect or the level left
Fusarium verticillioides [29] = test: Antifungal activity against Fusarium verticillioides infected Cavendish banana fruit assessed as reduction in crown rot incubated for 15 min followed by compound washout measured after 1 week in absence of surfactant APSA 80 relative to control; type: functional; set-up: concentration or dose not given beside the values
Lasiodiplodia theobromae [30] = test: Antifungal activity against Lasiodiplodia theobromae infected Cavendish banana fruit assessed as reduction in crown rot incubated for 15 min followed by compound washout measured after 1 week in absence of surfactant APSA 80 relative to control; type: functional; set-up: concentration or dose not given beside the values
Thielaviopsis paradoxa [31] = test: Antifungal activity against Ceratocystis paradoxa assessed as reduction in colony diameter at 10 to 160 g/l incubated for 15 min followed by compound washout measured after 7 days in presence of surfactant APSA 80 relative to control; type: functional; set-up: scale not given: the % may be the effect or the level left

What does the source list for [Ca+2].[Cl-].[Cl-] [CALCIUM CHLORIDE]?
inhibition (Fusarium verticillioides [1]): Active; Activity (Lasiodiplodia theobromae [2]): 87%; Activity (Thielaviopsis paradoxa [3]): 0%; Activity (Lasiodiplodia theobromae [4]): 0%; Activity (Thielaviopsis paradoxa [5]): 50%; Activity (Colletotrichum musae [6]): 0%; Activity (Colletotrichum musae [7]): 0%; Activity (Colletotrichum musae [8]): 0%; Activity (Thielaviopsis paradoxa [9]): 0%; Activity (Fusarium verticillioides [10]): 58%; Activity (Colletotrichum musae [11]): inactive; Activity (Fusarium verticillioides [12]): 53%; Activity (Fusarium verticillioides [13]): 50%; Activity (Lasiodiplodia theobromae [14]): 35%; Activity (Thielaviopsis paradoxa [15]): inactive; Activity (Lasiodiplodia theobromae [16]): 50%; Activity (Colletotrichum musae [17]): 50%; Activity (Colletotrichum musae [18]): 0%; Activity (Fusarium verticillioides [19]): inactive; Activity (Thielaviopsis paradoxa [20]): 0%; Activity (Fusarium verticillioides [21]): 0%; Activity (Fusarium verticillioides [22]): 5%; Activity (Lasiodiplodia theobromae [23]): 0%; Activity (Fusarium verticillioides [24]): 42%; Activity (Fusarium verticillioides [25]): inactive; Activity (Fusarium verticillioides [26]): 0%; Activity (Thielaviopsis paradoxa [27]): 28%; Activity (Colletotrichum musae [28]): 62%; Activity (Fusarium verticillioides [29]): 0%; Activity (Lasiodiplodia theobromae [30]): 0%; Activity (Thielaviopsis paradoxa [31]): 56%

Which inhibition (Fusarium verticillioides [1]) does the source give for [Na+].[O-]Cl [SODIUM HYPOCHLORITE] here?
The inhibition was “Active”.

And the Activity (Lasiodiplodia theobromae [2])?
The Activity was 92%.

And the Activity (Thielaviopsis paradoxa [3])?
The Activity was 0%.

What about the Activity (Lasiodiplodia theobromae [4]) of the same compound?
The Activity was 0%.

And the Activity (Thielaviopsis paradoxa [5])?
The Activity was 50%.

And the Activity (Colletotrichum musae [6])?
Its Activity is 50%.

What about the Activity (Colletotrichum musae [7]) of the same compound?
Its Activity is 0%.

And the Activity (Colletotrichum musae [8])?
Its Activity is 0%.

What about the Activity (Thielaviopsis paradoxa [9]) of the same compound?
Its Activity is 50%.

What about the Activity (Fusarium verticillioides [10]) of the same compound?
The Activity was 47%.

And the Activity (Colletotrichum musae [11])?
The Activity was 30 g/L.

And the Activity (Fusarium verticillioides [12])?
Its Activity is 51%.

And the Activity (Fusarium verticillioides [13])?
Its Activity is 50%.

And the Activity (Lasiodiplodia theobromae [14])?
Its Activity is 40%.

And the Activity (Thielaviopsis paradoxa [15])?
Its Activity is 90 g/L.

What about the Activity (Lasiodiplodia theobromae [16]) of the same compound?
The Activity was 50%.

What about the Activity (Colletotrichum musae [17]) of the same compound?
Its Activity is 50%.

What about the Activity (Colletotrichum musae [18]) of the same compound?
The Activity was 13%.

And the Activity (Fusarium verticillioides [19])?
Its Activity is 50 g/L.

And the Activity (Thielaviopsis paradoxa [20])?
The Activity was 0%.

What about the Activity (Fusarium verticillioides [21]) of the same compound?
Its Activity is 0%.

What about the Activity (Fusarium verticillioides [22]) of the same compound?
The Activity was 0%.

What about the Activity (Lasiodiplodia theobromae [23]) of the same compound?
Its Activity is 50%.

What about the Activity (Fusarium verticillioides [24]) of the same compound?
The Activity was 61%.

And the Activity (Fusarium verticillioides [26])?
Its Activity is 50%.

What about the Activity (Thielaviopsis paradoxa [27]) of the same compound?
The Activity was 18%.

And the Activity (Colletotrichum musae [28])?
Its Activity is 78%.

What about the Activity (Fusarium verticillioides [29]) of the same compound?
Its Activity is 0%.

What about the Activity (Lasiodiplodia theobromae [30]) of the same compound?
The Activity was 0%.

What about the Activity (Thielaviopsis paradoxa [31]) of the same compound?
Its Activity is 67%.

Which results are given for [Cl-].[Na+] [SODIUM CHLORIDE]?
Activity (Lasiodiplodia theobromae [2]): 94%; Activity (Thielaviopsis paradoxa [3]): 0%; Activity (Lasiodiplodia theobromae [4]): 0%; Activity (Thielaviopsis paradoxa [5]): 10%; Activity (Colletotrichum musae [6]): 0%; Activity (Colletotrichum musae [7]): 0%; Activity (Colletotrichum musae [8]): 0%; Activity (Thielaviopsis paradoxa [9]): 0%; Activity (Fusarium verticillioides [10]): 0%; Activity (Colletotrichum musae [11]): inactive; Activity (Fusarium verticillioides [12]): 79%; Activity (Fusarium verticillioides [13]): 10%; Activity (Lasiodiplodia theobromae [14]): 90%; Activity (Thielaviopsis paradoxa [15]): inactive; Activity (Lasiodiplodia theobromae [16]): 10%; Activity (Colletotrichum musae [17]): 10%; Activity (Colletotrichum musae [18]): 83%; Activity (Fusarium verticillioides [19]): inactive; Activity (Thielaviopsis paradoxa [20]): 0%; Activity (Fusarium verticillioides [21]): 0%; Activity (Fusarium verticillioides [22]): 83%; Activity (Lasiodiplodia theobromae [23]): 0%; Activity (Fusarium verticillioides [24]): -5%; Activity (Fusarium verticillioides [25]): inactive; Activity (Fusarium verticillioides [26]): 0%; Activity (Thielaviopsis paradoxa [27]): 71%; Activity (Colletotrichum musae [28]): 93%; Activity (Fusarium verticillioides [29]): 0%; Activity (Lasiodiplodia theobromae [30]): 0%; Activity (Thielaviopsis paradoxa [31]): 84%

Source: ChEMBL document CHEMBL3044541, “Control of crown rot-causing fungal pathogens of banana by inorganic salts and a surfactant” (Crop Prot, 2007)
